“Also recorded” adds a separate entry of the source.
Tests used:
[1] = activity and learning performance after administration into the ventricles; format: in vivo; conditions: administered into the ventricles, rats
Excerpt: Because ACTH and β-END secretion is the "sine qua non" of an animal's response to stress, it was not surprising that rCRF has significant effects on the brain as a mediator of the body's stress response. Accordingly, rCRF may also find application in modifying the mood, learning and behavior of normal and mentally disordered individuals. Because rCRF and its analogs elevate the levels of ACTH, β-END, β-lipotropin, other pro-opiomelanocortin gene products and corticosterone, its administration can be used to induce their effects on the brain and its periphery to thereby influence memory, mood, pain appreciation, etc., and more specifically, alertness, depression and/or anxiety.

[2] = lowering of blood pressure in rats; format: in vivo
[3] = lowering of blood pressure in dogs; format: in vivo
[4] = tested on: ACTH and β-endorphin-like (β-END-LI) secretion; assay: ACTH and β-END-LI secretion in vivo after intravenous administration; design: species or system rats; conditions: for stimulation of ACTH and β-END-LI secretion in vivo (words): several rat preparations
Excerpt: (§1) The synthetic and the natural rCRF were examined for their effects on the secretion of ACTH and β-endorphin in vitro and the synthetic rCRF was also examined in vivo.

[5] = tested on: cultured rat pituitary cells; assay: secretion of ACTH and β-endorphin by cultured rat pituitary cells in vitro; format: cell-based
Excerpt: as §1

Structure (SMILES): CC[C@H](C)[C@H](NC(=O)[C@@H](NC(=O)[C@H](CCC(=O)O)NC(=O)[C@H](CCSC)NC(=O)[C@H](CC(C)C)NC(=O)[C@H](CCCCN)NC(=O)[C@H](CCCNC(=N)N)NC(=O)[C@H](CC(N)=O)NC(=O)[C@H](CO)NC(=O)[C@H](Cc1c[nH]cn1)NC(=O)[C@H](C)NC(=O)[C@H](CCC(N)=O)NC(=O)[C@H](CCC(N)=O)NC(=O)[C@H](C)NC(=O)[C@H](CC(C)C)NC(=O)[C@H](CCC(N)=O)NC(=O)[C@H](CCC(=O)O)NC(=O)[C@H](C)NC(=O)[C@H](CCCNC(=N)N)NC(=O)[C@H](C)NC(=O)[C@H](CCSC)NC(=O)[C@H](CCC(=O)O)NC(=O)[C@H](CC(C)C)NC(=O)[C@@H](NC(=O)[C@H](CCC(=O)O)NC(=O)[C@H](CCCNC(=N)N)NC(=O)[C@H](CC(C)C)NC(=O)[C@H](CC(C)C)NC(=O)[C@H](Cc1c[nH]cn1)NC(=O)[C@H](Cc1ccccc1)NC(=O)[C@@H](NC(=O)[C@H](CC(C)C)NC(=O)[C@H](CC(=O)O)NC(=O)[C@H](CC(C)C)NC(=O)[C@H](CO)NC(=O)[C@@H](NC(=O)[C@@H]1CCCN1C(=O)[C@@H]1CCCN1C(=O)[C@H](CCC(=O)O)NC(=O)[C@H](CCC(=O)O)NC(=O)[C@@H](N)CO)[C@@H](C)CC)[C@@H](C)O)C(C)C)[C@@H](C)CC)C(N)=O [synthetic rCRF]
- activity [1]: increases activity
- learning performance [1]: improves learning performance
- lowering of blood pressure ([2]; rats): dramatic effect to lower blood pressure
- lowering of blood pressure ([2]; species not given, general procedure of Example III): substantially lower blood pressure for an extended time period
- lowering of blood pressure [3]: dramatic effect to lower blood pressure
- elevation of ACTH and β-endorphin-like (β-END-LI) secretion ([4]; in vivo doses from 30 ng to 3 μg/Kg of body weight): 5-20 fold
- stimulation of ACTH and β-END-LI secretion in vivo (words) [4]: stimulate ACTH and β-endorphin activies
- stimulation of ACTH and β-END-LI secretion in vivo (words) ([4]; listed as Synthetic rCRF): powerful stimulator of ACTH and β-END-LI secretion in vivo
- time plasma levels of ACTH and β-END-LI are elevated ([4]; intravenous, nembutal-anesthesized male rats and quiescent male or female rats with indwelling cannulae): 5 to 20 min
- EC50 ([5]; concentration giving half-maximal response, cultured rat pituitary cells): ~100 pM
- minimal response, secretion of ACTH and β-endorphin ([5]; concentration giving minimal response, cultured rat pituitary cells): about 10 picomolar
- maximal concentrations, secretory response at a plateau level ([5]; cultured rat pituitary cells): > 5 nM
- stimulation of secretion of ACTH and β-endorphin in vitro ([5]; in vitro): high potency; also recorded: stimulate ACTH and β-endorphin activies

— patent US4489163A, “rCRF and analogs” (The Salk Institute for Biological Studies, priority 1983, dated 1984)
